Where two headings read alike, the source gives them in different places.
How the values were obtained:
[1] = test system: Saccharomyces cerevisiae cells expressing the catalytic domain of P. aeruginosa ExoA (ExoAc); test: Yeast-based compound screen; format: cell-based; conditions: compound 50 μM; w303 strain; growth restored
cholix toxin = cholix toxin (Vibrio cholerae, UniProt Q5EK40); test: biochemical; format: biochemical
C38 cells = test: Mammalian C38 cell drug sensitivity assay (MTT); format: cell-based, Human; conditions: compound 50 μM
Experimental: The C38 cells were cultured in 25 cm^2 culture flasks containing LHC-8 media with 5% fetal bovine serum at 37° C. in 5% CO2 until 90-100% confluency. The cells were washed with phosphate-buffered saline (PBS) and then detached from the culture flask by treating the cells with Puck's Saline Solution containing 0.02% EDTA. The cell suspension was diluted to a final density of 1.0×10^5 cells/mL and 100-μL aliquots were used to seed a 96-well plate. The cells were then grown in the presence of 50 μM of inhibitor (nonpolar compounds required 0.5% DMSO for solubility).

WT ExoAc = WT ExoAc (Pseudomonas aeruginosa, UniProt P11439); test: biochemical; format: binding, P. aeruginosa
Chain of WT ExoAc (P11439 430-638 limits assumed): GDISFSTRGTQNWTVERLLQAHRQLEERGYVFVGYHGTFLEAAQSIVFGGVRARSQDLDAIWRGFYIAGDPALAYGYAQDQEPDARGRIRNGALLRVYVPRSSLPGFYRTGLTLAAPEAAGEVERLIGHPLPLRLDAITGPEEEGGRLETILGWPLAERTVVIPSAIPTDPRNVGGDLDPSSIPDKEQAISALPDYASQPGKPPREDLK

[2] = test system: ExoA intoxicated C38 cells; format: cell-based, Human
[3] = test system: C38 cells in the presence of 650 ng/mL of ExoA; test: Determination of half-maximal effective concentration (EC50) in C38 cells; format: cell-based, Human; conditions: 96 h
Experimental: Cell viability was determined using the same method as the cytoprotection assay. The EC50 values were extrapolated from each corresponding line-of-best-fit (Sigmoidal function in Origin 6.1), and the average values reported±the standard deviation.

[4] = 650 ng/ml ExoA (10-times LD50), NAP and V30 with 0.5% DMSO

Chain of cholix toxin (Q5EK40 33-666 limits assumed): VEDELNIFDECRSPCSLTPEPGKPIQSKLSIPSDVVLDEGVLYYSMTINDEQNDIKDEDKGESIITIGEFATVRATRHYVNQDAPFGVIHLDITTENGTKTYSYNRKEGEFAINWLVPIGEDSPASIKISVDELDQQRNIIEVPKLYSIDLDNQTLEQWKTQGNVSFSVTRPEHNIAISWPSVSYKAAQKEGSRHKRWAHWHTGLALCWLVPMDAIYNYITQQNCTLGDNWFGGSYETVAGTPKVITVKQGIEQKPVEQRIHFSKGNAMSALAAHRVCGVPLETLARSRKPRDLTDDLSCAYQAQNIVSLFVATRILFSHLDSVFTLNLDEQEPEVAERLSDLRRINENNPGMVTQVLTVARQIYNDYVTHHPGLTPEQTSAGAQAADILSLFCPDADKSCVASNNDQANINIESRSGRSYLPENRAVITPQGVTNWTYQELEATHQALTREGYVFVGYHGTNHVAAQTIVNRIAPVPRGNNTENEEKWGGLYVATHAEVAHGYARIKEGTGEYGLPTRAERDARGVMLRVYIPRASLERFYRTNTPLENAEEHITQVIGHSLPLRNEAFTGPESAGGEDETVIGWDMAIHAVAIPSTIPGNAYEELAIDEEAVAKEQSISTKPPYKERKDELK

## CN(C)CCCOc1ccc(-c2nc3cccc4c3n2CCNC4=O)cc1 [Compound P2]
[1]
  Protection in Yeast: − (Compounds showing less than 5% growth were scored (−))
Cholix toxin; read-out: IC50
  IC50: 480 ± 40 nM
Cholix toxin; read-out: Ki
  Ki: 63 ± 5 nM
C38 cells
  toxicity to C38 cells: toxic
WT ExoAc; read-out: Kd
  Kd: 260 ± 10 nM

## O=c1[nH]nc2c3c(cccc13)N=CN2 [Compound P7]
[1]
  Protection in Yeast: − (Compounds showing less than 5% growth were scored (−))
Cholix toxin; read-out: IC50
  IC50: 908 ± 118 nM
Cholix toxin; read-out: Ki
  Ki: 118 ± 7 nM
C38 cells
  toxicity to C38 cells: toxic
WT ExoAc; read-out: Kd
  Kd: 680 ± 40 nM

## CC1=C(C)C2C(=O)CC(SCC(=O)NCCO)=CC2S1 (stereo not shown) [Compound V30]
[2]
  protection of C38 cells against ExoA (in words): excellent protection
  protection of C38 cells from lethal action of high dose ExoA (morphology): completely protected
[1]
  Protection in Yeast: − (Compounds showing less than 5% growth were scored (−))
Cholix toxin
  IC50: 2810 nM
  Ki: 367 ± 3 nM
[3]; Homo sapiens
  EC50: 8800 ± 500 nM
WT ExoAc
  Kd: 931 ± 74 nM

## CN1CCN(C2CCC3NC(O)C4CCCCC4C3N2)CC1 (stereo not shown) [Compound P3]
[1]
  Protection in Yeast: − (Compounds showing less than 5% growth were scored (−))
Cholix toxin; read-out: IC50
  IC50: 690 ± 130 nM
Cholix toxin; read-out: Ki
  Ki: 90 ± 17 nM
C38 cells
  toxicity to C38 cells: toxic
WT ExoAc; read-out: Kd
  Kd: 1470 ± 30 nM

## O=C1NC(=O)c2cccc3cccc1c23 [NAP, 1,8-naphthalimide, reference compound]
[2]
  protection of C38 cells against ExoA (in words): excellent protection
[1]
  Protection in Yeast: ++++ (Compounds found to restore growth to 50-75% (++++))
[3]; Homo sapiens
  EC50: 3800 ± 900 nM
WT ExoAc
  Kd: 950 ± 30 nM

## CN(C)Cc1nc2cccc3c2n1CCNC3=O [Compound P4]
[1]
  Protection in Yeast: − (Compounds showing less than 5% growth were scored (−))
Cholix toxin; read-out: IC50
  IC50: 960 nM
Cholix toxin; read-out: Ki
  Ki: 132 ± 7 nM
[3]; [4]
  EC50: 12600 ± 3300 nM
WT ExoAc; read-out: Kd
  Kd: 1380 ± 30 nM

## O=C1NN=C(CN2CCOCC2)c2c[nH]c3cccc1c23 [Compound P1]
[2]
  protection of C38 cells from lethal action of high dose ExoA (morphology): completely protected
[1]
  Protection in Yeast: − (Compounds showing less than 5% growth were scored (−))
Cholix toxin; read-out: Ki
  Ki: 22 ± 4 nM
[3]; [4]
  EC50: 2900 ± 800 nM
WT ExoAc
  difference in affinity between the two binding sites: ~50 fold
WT ExoAc; read-out: Kd
  Kd: 10 nM
WT ExoAc; read-out: Kd, second (lower affinity) binding constant (converted)
  Kd: 650 nM

## O=C1NCCn2c(CCc3ccc(CN4CCCC4)cc3)nc3cccc1c32 [Compound P5]
[1]
  Protection in Yeast: − (Compounds showing less than 5% growth were scored (−))
Cholix toxin; read-out: IC50
  IC50: 4460 nM
Cholix toxin; read-out: Ki
  Ki: 582 ± 124 nM
[3]; [4]
  EC50: 16700 ± 1900 nM
WT ExoAc; read-out: Kd
  Kd: 750 ± 10 nM

Reference: patent US20120142682A1, “ANT[…] INHIBITING BACTERIAL MONO-ADP-RIBOSYLT[…]” (UNIVERSITY OF GUELPH, priority 2010, published 2012)
